Results on 12 molecules are retold here after PubChem BioAssay (NCI).

Values joined by “and” are separate entries in the source; they are usually repeats but may differ in a detail not shown here. Identical values can stand only once.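 Interpolation was linear, between the two tested concentrations surrounding the appropriate level; five concentrations were tested over 48 hours in 96-well plates. GI50: concentration for 50% inhibition of growth. TGI marks complete inhibition of growth.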

Experiment in all cases: NCI tumour cell line growth inhibition, 48 h
For assay [1], the system named is A498 renal.
For assay [2], the system named is DLD-1 colon.
Assay [3] relates to MALME-3M melanoma.
Assay [4] concerns MOLT-4 leukemia.
Assay [5] deals with OVCAR-5 ovarian.
Assay [6] concerns P388/ADR leukemia.
Assay [7] has as its system SK-MEL-28 melanoma.
Assay [8] has as its system U251 CNS.
Assay [9] concerns XF 498 CNS.
The subject of assay [10] is ACHN renal.
In assay [11] the test system is MDA-N.

For `COc1ccc2[nH]cc(/C=C(/C)c3ccncc3)c2c1`, the TGI in [1] was 42.5 µM; in assay [2], over 100 µM; in assay [3], 21.9 µM; in assay [4] it was 47.9 µM and > 100 µM; in [5], 41.5 µM and > 100 µM; in [6] it was 22.6 µM. Moreover, the TGI is over 100 µM in assay [7]; 11 µM and 67.9 µM in assay [8]; 27.8 µM and 44.5 µM in [9]. Also, the GI50 in assay [2] was 4 µM; in assay [3], 3.14 µM; in assay [4] it was 2.68 µM; in assay [5] it was 11.6 µM; in assay [7], 9.02 µM; in [8] it was 3.24 µM. The GI50 in [9] is 4.3 µM.

In the case of `COc1ccc2cc1Oc1ccc(cc1)C[C@H]1c3cc(c(OC)cc3CCN1C)Oc1c(O)c(OC)cc3c1[C@H](C2)N(C)CC3`, the TGI in assay [1] stood at 50.4 µM; in [2], 53.7 µM; in [3], 52.5 µM; in assay [4], 26.4 µM; in assay [5], 99.6 µM; in assay [6] it was 109 µM. In addition, the TGI in [7] came to 48.3 µM; in [8] it was 60.3 µM; in assay [9], 49.4 µM.

Turning to `O=C1C=C[C@@H](COC2OC(CO)C(O)C(O)C2O)O1` (stereo not given in full), the TGI in [1] is 30.6 µM; in assay [2] it was 17.9 µM and 19.1 µM; in assay [3], 31.9 µM; in assay [4], 21.1 µM and 48.6 µM; in assay [5] it was 50.4 µM and 36.8 µM; in [6] it was 1.82 µM. In addition, the TGI in assay [7] was 26.1 µM and > 100 µM; in assay [8], 31 µM and 30.9 µM; in assay [9] it was 31.6 µM and 34.5 µM. The GI50 is 12.5 µM in assay [3], 28.5 µM in assay [5], 11.8 µM in assay [7] and 14.3 µM in assay [9].

In the case of `CC1(C)O[C@H]2OC(CO[Si](C)(C)C(C)(C)C)C(N=[N+]=[N-])[C@H]2O1` (stereo not given in full), the TGI in assay [1] was found to be 53 µM; in [10], 38.6 µM; in [3] it was 31.7 µM; in assay [11] it was 53.8 µM; in assay [4], 33.9 µM; in [5], 35.2 µM. In addition, the TGI in assay [7] amounted to 60.9 µM; in assay [8], 48.1 µM.

Consider `Cc1cc(Nc2ccc(S(=O)(=O)O)c3cc(S(=O)(=O)O)cc(S(=O)(=O)O)c23)c2ccccc2n1`, for which the TGI in [1], in assay [10], in [3], in assay [11], in [4] and in assay [5] was over 100 µM each time. Also, the TGI in [7] and in [8] was over 100 µM each time.

Turning to `N#CC(NCc1cccc(CNC(C#N)c2ccccc2)c1)c1ccccc1` (stereo not given), the TGI is over 100 µM in [1]; over 100 µM in assay [10]; 65.9 µM in assay [3]; over 100 µM in assay [11]; 39 µM in assay [4]; over 100 µM in assay [5]. Further, the TGI was 33.8 µM in assay [7] and over 100 µM in [8].

On to `Oc1ccc2c(c1)c1c(n2CCN2CCOCC2)-c2ccccc2CC1`, for which the TGI is 52.6 µM in assay [1]; over 100 µM in [10]; 53.2 µM in [3]; over 100 µM in assay [11]; over 100 µM in assay [4]; 60.5 µM in [5]. In addition, the TGI in assay [7] was 55.6 µM; in assay [8] it was over 100 µM.

With `COc1cccc(C2SC(N)=Nc3c2c(C)nn3C(=O)c2ccccc2O)c1` (stereo not given), the TGI in assay [1], in [10], in assay [3], in assay [11], in [4] and in [5] was over 10 µM each time. Moreover, the TGI in assay [7] and in assay [8] was over 10 µM each time.

Turning to `CC(C)c1cc2c(cc1S(=O)(=O)O)[C@@]1(C)CCC[C@@](C)(C(=O)O)C1CC2` (stereo not given in full), the TGI in assay [1], in [10], in assay [3], in assay [11], in assay [4] and in assay [5] was over 100 µM in each case. The TGI in [7] and in [8] was over 100 µM throughout.

Turning to `Cc1oc2c(cc(O)c3cc(O)ccc32)c2cccc1-2`, the TGI in [1], in assay [10], in assay [3], in assay [11], in [4] and in assay [5] was over 100 µM in each case. The TGI in assay [7] and in assay [8] was over 100 µM each time.

Consider `C#CCn1c(=O)c2ccccc2n(CC#C)c1=O`, for which the TGI in [1], in assay [10], in assay [3], in [11], in assay [4] and in assay [5] was over 10 µM in each case. The TGI in [7] and in [8] was over 10 µM in each case.

As to `COC(=O)[C@@H](O)[C@](O)(CCC(C)C)C(=O)O[C@@H]1C(OC)=C[C@]23CCCN2CCc2cc4c(cc2[C@H]13)OCO4`, the TGI is 4.45 µM in [1]; over 19.7 µM in [2]; 1.94 µM in assay [3]; 6.97 µM in assay [4]; 15.2 µM in assay [5]; 11 µM in assay [6]. For the same molecule, the TGI in assay [7] was 2.78 µM; in assay [8] it was 6.05 µM.
